These results are taken from publication PMC6022752 (Journal of the American Chemical Society, 2018).

Molecules are shown by their SMILES.

The conditions of series [1]: cited from earlier work.
The next series addresses JAK3 (Homo sapiens, UniProt P52333). The series is described as follows: HotSpot 10-dose dose-response kinase assay: JAK3. Conditions: read-out: Dose-response IC50 JAK3; 10-dose dose-response, 1 μM ATP. It is filed as biochemical.
The next series concerns the target ABL1 (Homo sapiens, UniProt P00519). The series is described as follows: HotSpot 10-dose dose-response kinase assay: ABL1. It is filed as biochemical. The note with it: read-out: Dose-response IC50 ABL1; 10-dose dose-response, 1 μM ATP.
The next series deals with BRAF (V599E) (Homo sapiens, UniProt P15056, V600E). Description: HotSpot 10-dose dose-response kinase assay: BRAF. It is filed as biochemical. Conditions: read-out: Dose-response IC50 BRAF (V599E); 10-dose dose-response, 1 μM ATP.
Sequence of BRAF (V599E) (P15056 416-766 V600E limits assumed): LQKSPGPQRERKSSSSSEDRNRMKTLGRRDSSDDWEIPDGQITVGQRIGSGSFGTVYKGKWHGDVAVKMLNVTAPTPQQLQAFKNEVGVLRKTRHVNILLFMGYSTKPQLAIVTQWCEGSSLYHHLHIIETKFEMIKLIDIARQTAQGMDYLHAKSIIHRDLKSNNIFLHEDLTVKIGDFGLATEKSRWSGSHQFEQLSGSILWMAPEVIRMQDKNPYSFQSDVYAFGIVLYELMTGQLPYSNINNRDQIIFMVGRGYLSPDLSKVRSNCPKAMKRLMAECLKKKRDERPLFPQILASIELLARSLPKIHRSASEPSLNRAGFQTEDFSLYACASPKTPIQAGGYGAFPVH
Another series addresses RET (Homo sapiens, UniProt P07949). The series is described as follows: HotSpot 10-dose dose-response kinase assay: RET. It is filed as biochemical. Conditions: read-out: Dose-response IC50 RET; 10-dose dose-response, 1 μM ATP.
A further series concerns the target JAK2 (Homo sapiens, UniProt O60674). The series is described as follows: HotSpot 10-dose dose-response kinase assay: JAK2. It is filed as biochemical. The note with it: read-out: Dose-response IC50 JAK2; 10-dose dose-response, 1 μM ATP.
Another series relates to ANT. The note with it: read-out: IC50 ANT inhibition; cited from earlier work.
Another series has as its target TYK2 (Homo sapiens, UniProt P29597). The series is described as follows: 369-kinase HotSpot kinome screen: TYK2. It is filed as biochemical. Conditions: read-out: Tyk2 inhibition, from kinome screen.
The target in a further series is EGFR (L858R) (Homo sapiens, UniProt P00533, L858R). The series is described as follows: HotSpot 10-dose dose-response kinase assay: EGFR. It is filed as biochemical. Conditions: read-out: Dose-response IC50 EGFR (L858R); 10-dose dose-response, 1 μM ATP.
A further series has as its target EGFR (T790M) (Homo sapiens, UniProt P00533, T790M). The series is described as follows: HotSpot 10-dose dose-response kinase assay: EGFR. It is filed as biochemical. Conditions: read-out: Dose-response IC50 EGFR (T790M); 10-dose dose-response, 1 μM ATP.
Another series concerns the target EGFR (L858R, T790M) (Homo sapiens, UniProt P00533, L858R/T790M). The series is described as follows: HotSpot 10-dose dose-response kinase assay: EGFR. It is filed as biochemical. The note with it: read-out: Dose-response IC50 EGFR (L858R, T790M); 10-dose dose-response, 1 μM ATP.
In the next series the target is PDGFRa (Homo sapiens, UniProt P16234). Description: HotSpot 10-dose dose-response kinase assay: PDGFRa. Conditions: read-out: Dose-response IC50 PDGFRa; 10-dose dose-response, 1 μM ATP. It is filed as biochemical.
For the next series, the target named is EGFR (d746–750) (Homo sapiens, UniProt P00533, DEL746-750). The series is described as follows: HotSpot 10-dose dose-response kinase assay: EGFR. The note with it: read-out: Dose-response IC50 EGFR (d746–750); 10-dose dose-response, 1 μM ATP. It is filed as biochemical.
Another series concerns the target EGFR (G719S) (Homo sapiens, UniProt P00533, G719S). The series is described as follows: HotSpot 10-dose dose-response kinase assay: EGFR. It is filed as biochemical. The note with it: read-out: Dose-response IC50 EGFR (G719S); 10-dose dose-response, 1 μM ATP.
A further series has as its target JAK1 (Homo sapiens, UniProt P23458). Description: HotSpot 10-dose dose-response kinase assay: JAK1. It is filed as biochemical. The note with it: read-out: Dose-response IC50 JAK1; 10-dose dose-response, 1 μM ATP.
A further series has as its target BRAF (Homo sapiens, UniProt P15056). The series is described as follows: HotSpot 10-dose dose-response kinase assay: BRAF. The note with it: read-out: Dose-response IC50 BRAF; 10-dose dose-response, 1 μM ATP. It is filed as biochemical.
The target of another series is PKCepsilon (Homo sapiens, UniProt Q02156). The series is described as follows: HotSpot 10-dose dose-response kinase assay: PKCepsilon. It is filed as biochemical. The note with it: read-out: Dose-response IC50 PKCepsilon; 10-dose dose-response, 1 μM ATP.
Sequence of PKCepsilon (Q02156 whole entry): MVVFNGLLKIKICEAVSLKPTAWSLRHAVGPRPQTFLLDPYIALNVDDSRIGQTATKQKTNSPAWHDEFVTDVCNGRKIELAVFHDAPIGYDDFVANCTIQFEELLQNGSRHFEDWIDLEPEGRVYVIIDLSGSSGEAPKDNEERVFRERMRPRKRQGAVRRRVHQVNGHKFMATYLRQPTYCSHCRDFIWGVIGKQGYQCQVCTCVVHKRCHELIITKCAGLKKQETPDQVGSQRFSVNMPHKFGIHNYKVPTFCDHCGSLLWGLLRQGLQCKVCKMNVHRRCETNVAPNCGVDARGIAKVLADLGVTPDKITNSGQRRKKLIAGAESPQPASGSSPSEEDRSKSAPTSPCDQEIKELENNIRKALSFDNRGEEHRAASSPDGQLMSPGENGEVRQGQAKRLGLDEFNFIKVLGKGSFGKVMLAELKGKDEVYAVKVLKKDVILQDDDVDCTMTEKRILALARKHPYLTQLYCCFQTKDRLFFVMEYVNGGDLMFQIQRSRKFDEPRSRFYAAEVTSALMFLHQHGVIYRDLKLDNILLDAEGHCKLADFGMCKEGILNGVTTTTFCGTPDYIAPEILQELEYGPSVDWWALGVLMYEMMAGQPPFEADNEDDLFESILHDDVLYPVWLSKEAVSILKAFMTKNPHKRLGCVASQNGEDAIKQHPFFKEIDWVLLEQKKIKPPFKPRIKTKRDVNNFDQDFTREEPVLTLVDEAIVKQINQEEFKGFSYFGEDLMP
Another series deals with DDR2 (Homo sapiens, UniProt Q16832). Description: HotSpot 10-dose dose-response kinase assay: DDR2. It is filed as biochemical. Conditions: read-out: Dose-response IC50 DDR2; 10-dose dose-response, 1 μM ATP.
Another series deals with kinases. The series is described as follows: Other kinase assays. It is filed as biochemical. The note with it: Figures S10 and S11.
For series [2], the system named is MCF-7, SW620, SW480, H460, A549, and MDA-MB-231 cell lines. The series is described as follows: GGOH rescue of cell growth inhibition. It is filed as cell-based. Conditions: six cell lines, 20 μM GGOH.
In a further series the target is EGFR (Homo sapiens, UniProt P00533). Description: EGFR wild type kinase-domain inhibition assay.

Sequence of TYK2 (P29597 whole entry): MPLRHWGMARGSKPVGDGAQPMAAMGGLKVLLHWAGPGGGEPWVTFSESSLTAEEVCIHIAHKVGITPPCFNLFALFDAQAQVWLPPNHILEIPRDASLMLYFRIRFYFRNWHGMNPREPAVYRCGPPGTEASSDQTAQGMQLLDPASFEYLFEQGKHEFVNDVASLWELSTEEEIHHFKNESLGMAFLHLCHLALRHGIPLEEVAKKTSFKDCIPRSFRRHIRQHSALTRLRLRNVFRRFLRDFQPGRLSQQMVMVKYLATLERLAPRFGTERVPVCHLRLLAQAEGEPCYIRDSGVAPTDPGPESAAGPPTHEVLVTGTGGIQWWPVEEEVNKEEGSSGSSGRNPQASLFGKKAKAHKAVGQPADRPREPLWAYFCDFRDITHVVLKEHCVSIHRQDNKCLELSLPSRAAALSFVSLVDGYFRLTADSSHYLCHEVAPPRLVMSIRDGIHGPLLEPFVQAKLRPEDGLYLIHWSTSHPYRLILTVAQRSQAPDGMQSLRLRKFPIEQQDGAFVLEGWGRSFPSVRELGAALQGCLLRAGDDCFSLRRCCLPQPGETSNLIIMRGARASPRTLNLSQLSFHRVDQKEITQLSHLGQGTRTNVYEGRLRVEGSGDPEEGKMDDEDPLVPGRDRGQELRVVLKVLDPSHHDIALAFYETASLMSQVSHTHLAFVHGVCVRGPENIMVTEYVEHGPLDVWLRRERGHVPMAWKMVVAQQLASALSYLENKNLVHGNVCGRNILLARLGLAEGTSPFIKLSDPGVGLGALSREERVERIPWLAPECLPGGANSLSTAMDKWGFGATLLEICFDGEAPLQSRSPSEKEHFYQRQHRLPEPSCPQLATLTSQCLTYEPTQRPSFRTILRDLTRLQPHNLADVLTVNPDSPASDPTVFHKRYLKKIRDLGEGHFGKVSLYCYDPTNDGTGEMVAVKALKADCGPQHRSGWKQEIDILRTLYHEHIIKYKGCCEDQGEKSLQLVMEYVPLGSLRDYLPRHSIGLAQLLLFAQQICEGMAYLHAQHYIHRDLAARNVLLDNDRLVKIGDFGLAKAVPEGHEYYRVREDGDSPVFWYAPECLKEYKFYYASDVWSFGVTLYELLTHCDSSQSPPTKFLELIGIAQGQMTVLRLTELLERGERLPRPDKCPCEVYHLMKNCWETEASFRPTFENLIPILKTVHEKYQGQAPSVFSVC
Sequence of ABL1 (P00519 whole entry): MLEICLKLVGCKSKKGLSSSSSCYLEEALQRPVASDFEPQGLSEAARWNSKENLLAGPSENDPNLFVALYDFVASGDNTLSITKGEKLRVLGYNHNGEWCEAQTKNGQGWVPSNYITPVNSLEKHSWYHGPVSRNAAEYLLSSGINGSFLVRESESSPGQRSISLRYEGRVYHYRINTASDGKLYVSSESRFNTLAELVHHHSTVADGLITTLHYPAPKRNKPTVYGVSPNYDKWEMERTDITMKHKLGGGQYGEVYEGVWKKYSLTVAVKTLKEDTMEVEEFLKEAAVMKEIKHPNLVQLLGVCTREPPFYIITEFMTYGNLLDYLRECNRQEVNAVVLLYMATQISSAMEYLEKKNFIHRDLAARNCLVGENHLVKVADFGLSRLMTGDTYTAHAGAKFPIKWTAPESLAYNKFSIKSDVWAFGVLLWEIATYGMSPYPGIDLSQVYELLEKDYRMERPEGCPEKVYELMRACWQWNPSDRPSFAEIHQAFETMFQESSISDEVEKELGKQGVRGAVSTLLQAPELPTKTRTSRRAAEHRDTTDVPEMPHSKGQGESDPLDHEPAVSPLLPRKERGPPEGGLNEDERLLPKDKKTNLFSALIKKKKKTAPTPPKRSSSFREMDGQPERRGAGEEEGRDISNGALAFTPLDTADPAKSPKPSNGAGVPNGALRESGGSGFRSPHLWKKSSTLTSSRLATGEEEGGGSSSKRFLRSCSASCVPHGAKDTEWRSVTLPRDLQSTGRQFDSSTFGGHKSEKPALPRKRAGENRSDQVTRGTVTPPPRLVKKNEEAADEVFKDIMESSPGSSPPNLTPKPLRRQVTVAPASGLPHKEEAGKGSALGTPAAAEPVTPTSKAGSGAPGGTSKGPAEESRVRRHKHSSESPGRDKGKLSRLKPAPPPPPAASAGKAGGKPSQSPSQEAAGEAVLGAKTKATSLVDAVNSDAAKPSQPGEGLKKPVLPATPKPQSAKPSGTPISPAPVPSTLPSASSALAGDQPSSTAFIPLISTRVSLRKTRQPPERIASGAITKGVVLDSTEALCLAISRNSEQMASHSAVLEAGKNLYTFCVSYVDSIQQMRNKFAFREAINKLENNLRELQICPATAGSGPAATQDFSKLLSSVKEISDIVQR
Sequence of JAK1 (P23458 whole entry): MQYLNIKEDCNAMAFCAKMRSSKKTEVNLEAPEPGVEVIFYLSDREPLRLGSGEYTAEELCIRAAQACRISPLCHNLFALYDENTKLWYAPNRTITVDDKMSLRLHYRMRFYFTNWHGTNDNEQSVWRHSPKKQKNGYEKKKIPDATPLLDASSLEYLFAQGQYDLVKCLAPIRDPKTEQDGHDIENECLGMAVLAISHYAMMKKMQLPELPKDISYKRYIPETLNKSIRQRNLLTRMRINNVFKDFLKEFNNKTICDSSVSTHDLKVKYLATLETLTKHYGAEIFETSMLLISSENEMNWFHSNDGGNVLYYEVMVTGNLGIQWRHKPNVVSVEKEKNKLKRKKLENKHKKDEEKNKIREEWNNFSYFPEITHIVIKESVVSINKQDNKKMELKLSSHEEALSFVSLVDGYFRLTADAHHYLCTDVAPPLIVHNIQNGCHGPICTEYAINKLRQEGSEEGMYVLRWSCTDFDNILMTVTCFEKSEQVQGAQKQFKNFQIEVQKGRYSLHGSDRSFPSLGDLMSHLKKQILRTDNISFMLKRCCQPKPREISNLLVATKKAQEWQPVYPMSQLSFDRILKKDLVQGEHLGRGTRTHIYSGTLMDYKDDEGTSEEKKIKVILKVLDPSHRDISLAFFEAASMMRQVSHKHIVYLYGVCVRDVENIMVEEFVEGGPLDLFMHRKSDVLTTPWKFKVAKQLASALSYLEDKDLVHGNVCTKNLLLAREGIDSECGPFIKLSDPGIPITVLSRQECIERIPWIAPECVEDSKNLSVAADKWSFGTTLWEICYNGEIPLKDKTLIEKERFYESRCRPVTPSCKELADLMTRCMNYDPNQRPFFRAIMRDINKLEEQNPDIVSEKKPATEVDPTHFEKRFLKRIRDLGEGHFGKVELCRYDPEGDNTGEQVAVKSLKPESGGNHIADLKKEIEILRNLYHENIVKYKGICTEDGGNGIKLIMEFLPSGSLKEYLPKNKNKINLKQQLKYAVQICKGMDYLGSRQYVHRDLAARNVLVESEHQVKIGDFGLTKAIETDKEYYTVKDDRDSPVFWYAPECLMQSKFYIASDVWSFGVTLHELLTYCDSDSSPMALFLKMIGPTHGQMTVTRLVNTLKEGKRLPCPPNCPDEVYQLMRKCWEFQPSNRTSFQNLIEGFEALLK

`Nc1ncnc2c1ncn2[C@@H]1O[C@H](COP(=O)(O)OP(=O)(O)OP(=O)(O)O)[C@@H](O)[C@H]1O` [ATP]: the pKa4 in series [1] is listed as 7.1.
`Nc1ncnc2c1ncn2[C@@H]1O[C@H](COP(=O)(O)OP(=O)(O)C(Cl)(Cl)P(=O)(O)O)[C@@H](O)[C@H]1O` [compound 4, adenosine 5′-(beta, gamma-dichloro-methylene) diphosphate]: the IC50 was 5 nM on JAK3; 79 nM on ABL1; 230000 nM on BRAF (V599E); 140 nM at RET; 13 nM on JAK2; ~50000 nM in the series on ANT. Moreover, the IC50 at TYK2 is ~230 nM; on EGFR (L858R) it was 490 nM; on EGFR (T790M) it was 270 nM; on EGFR (L858R, T790M), 80 nM; at PDGFRa, 4 nM; on EGFR (d746–750), 4300 nM. For the same compound, the IC50 at EGFR (G719S) was 760 nM; on JAK1 it was 66 nM; at BRAF, 6400 nM; on PKCepsilon, 43 nM; at DDR2, 47 nM.
Regarding `Nc1ncnc2c1ncn2[C@@H]1O[C@H](COP(=O)(O)OP(=O)(O)C(Br)(Br)P(=O)(O)O)[C@@H](O)[C@H]1O` [compound 23], the IC50 on EGFR (L858R, T790M) came out at 16 nM.
For `Nc1ncnc2c1ncn2C1OC(COP(=O)(O)OP(=O)(O)C(Sc2ccc(Cl)cc2)P(=O)(O)O)C(O)C1O` (stereo not shown) [compound 5], in the series on kinases, the “activity in other kinase assays” value was “low activity”.
`NCCC(O)(P(=O)(O)O)P(=O)(O)O` [pamidronate]: the “GGOH rescue of growth inhibition” value in series [2] was “very small rescue effects”.
Take `O=P(O)(O)C(O)(Cn1ccnc1)P(=O)(O)O` [compound 6, zoledronate]: the IC50 on EGFR amounted to 72000 ± 12000 nM.
